Experimental data as given in patent US20200399262A1, “COMPOUNDS FOR INHIBITING PROTEIN DEGRADATION AND METHODS OF USE THEREOF IN THE TREATMENT OF CANCER” (PI Therapeutics Ltd, priority 2018, published 2020).

What was measured:
Assay in all cases: Cell viability panel, ATPlite 1Step
Format in all cases: cell-based
OVCAR-3 = conditions: Homo sapiens, High grade ovarian serous adenocarcinoma, 72 h exposure, read-out: Compound EC50
Description: (§1) Cell viability panel studies. Cells were diluted in the corresponding ATCC recommended medium and dispensed in a 384-well plate, depending on the cell line used, at a density of 200-6400 cells per well. For each used cell line, the optimal cell density was used. Compound was serially diluted and 8 concentration (0.04-32 μM) were added to the cells for 72 h exposure. At t=end, of ATPlite 1Step™ (PerkinElmer) were used to calculate cell viability. Cell lines marked with asterisk were seeded 24 h prior to treatment in 96-well plates at the density range of 5,000-40,000 cells/well, according to duplication rate, in RPMI 1640 medium containing 10% fetal bovine serum and 2 mM L-glutamine. Compounds were diluted from 10 mM DMSO stock and treatment was applied at the range of 0.04-1 μM. Following incubation at 37° C. for 48 hours with increasing concentrations of the compounds, viability was determined with CyQUANT® Direct Assay Kit (Invitrogen). Output intensities were normalized to values after treatment with DMSO alone, and EC50 values were calculated using the absorbance measurements [time zero, (Tz), growth control, (C), plus the test growth at the four drug concentration levels (Ti)] as follows: [(Ti−Tz)/(C−Tz)]×100 for concentrations for which Ti>/=Tz; [(Ti−Tz)/Tz]×100 for concentrations for which Ti−<Tz.

SW982 = conditions: Homo sapiens, Biphasic synovial sarcoma, 72 h exposure, read-out: Compound EC50
Description: as §1

ACHN = conditions: Homo sapiens, Papillary renal cell carcinoma, 72 h exposure, read-out: Compound EC50
Description: as §1

SNU-5 = conditions: Homo sapiens, Gastric carcinoma, 72 h exposure, read-out: Compound EC50
Description: as §1

769-P = conditions: Homo sapiens, Renal cell carcinoma, 72 h exposure, read-out: Compound EC50
Description: as §1

KU812 = conditions: Homo sapiens, Chronic myelogenous leukemia, 72 h exposure, read-out: Compound EC50
Description: as §1

LNCaP FGC = conditions: Homo sapiens, Prostate carcinoma, 72 h exposure, read-out: Compound EC50
Description: as §1

U-2 OS = conditions: Homo sapiens, U2OS, Osteosarcoma, 72 h exposure, read-out: Compound EC50
Description: as §1

CCRF-CEM = conditions: Homo sapiens, T acute lymphoblastic leukemia, 72 h exposure, read-out: Compound EC50
Description: as §1

AsPC-1 = conditions: Homo sapiens, ASPC1, Pancreatic ductal adenocarcinoma, 72 h exposure, read-out: Compound EC50
Description: as §1

HuTu 80 = conditions: Homo sapiens, HuTu80, Duodenal adenocarcinoma, 72 h exposure, read-out: Compound EC50
Description: as §1

RT4 = conditions: Homo sapiens, RT-4, Bladder carcinoma, 72 h exposure, read-out: Compound EC50
Description: as §1

TCCSUP = conditions: Homo sapiens, TCC-SUP, Bladder carcinoma, 72 h exposure, read-out: Compound EC50
Description: as §1

NCI-H82 = conditions: Homo sapiens, Small cell lung carcinoma, 72 h exposure, read-out: Compound EC50
Description: as §1

MCF7 = conditions: Homo sapiens, Invasive ductal carcinoma, 72 h exposure, read-out: Compound EC50
Description: as §1

MeWo = conditions: Homo sapiens, Melanoma, 72 h exposure, read-out: Compound EC50
Description: as §1

SNU-C2B = conditions: Homo sapiens, Cecum adenocarcinoma, 72 h exposure, read-out: Compound EC50
Description: as §1

HL-60 = conditions: Homo sapiens, Acute myeloid leukemia, 72 h exposure, read-out: Compound EC50
Description: as §1

ES-2 = conditions: Homo sapiens, Ovarian clear cell adenocarcinoma, 72 h exposure, read-out: Compound EC50
Description: as §1

NCI-H661 = conditions: Homo sapiens, Large cell lung carcinoma, 72 h exposure, read-out: Compound EC50
Description: as §1

DoTc2 4510 = conditions: Homo sapiens, Cervical carcinoma, 72 h exposure, read-out: Compound EC50
Description: as §1

SJCRH30 = conditions: Alveolar rhabdomyosarcoma, 72 h exposure, read-out: Compound EC50
Description: as §1

DU 145 = conditions: Homo sapiens, Prostate carcinoma, 72 h exposure, read-out: Compound EC50
Description: as §1

A375 = conditions: Homo sapiens, A-375, Amelanotic melanoma, 72 h exposure, read-out: Compound EC50
Description: as §1

786-O = conditions: Homo sapiens, 786-0, Renal cell carcinoma, 72 h exposure, read-out: Compound EC50
Description: as §1

SW900 = conditions: Homo sapiens, Squamous cell lung carcinoma, 72 h exposure, read-out: Compound EC50
Description: as §1

KATO III = conditions: Homo sapiens, Signet ring cell gastric adenocarcinoma, 72 h exposure, read-out: Compound EC50
Description: as §1

A-704 = conditions: Homo sapiens, A704, Renal cell carcinoma, 72 h exposure, read-out: Compound EC50
Description: as §1

**Q.** What does the source list for `CN(C)CCCS(=O)(=O)N1C/C(=C\c2ccc(C#N)cc2)C(=O)/C(=C/c2ccc(C#N)cc2)C1` [Compound AA]?
**A.** EC50 (OVCAR-3): 300 to 1000 nM; EC50 (SW982): < 300 nM; EC50 (ACHN): 300 to 1000 nM; EC50 (SNU-5): 300 to 1000 nM; EC50 (769-P): < 300 nM; EC50 (KU812): < 300 nM; EC50 (LNCaP FGC): 300 to 1000 nM; EC50 (U-2 OS): < 300 nM; EC50 (CCRF-CEM): < 300 nM; EC50 (AsPC-1): 300 to 1000 nM; EC50 (HuTu 80): < 300 nM; EC50 (RT4): 300 to 1000 nM; EC50 (TCCSUP): < 300 nM; EC50 (NCI-H82): < 300 nM; EC50 (MCF7): ≥ 1000 nM; EC50 (MeWo): 300 to 1000 nM; EC50 (SNU-C2B): 300 to 1000 nM; EC50 (HL-60): < 300 nM; EC50 (ES-2): < 300 nM; EC50 (NCI-H661): 300 to 1000 nM; EC50 (DoTc2 4510): < 300 nM; EC50 (SJCRH30): < 300 nM; EC50 (DU 145): 300 to 1000 nM; EC50 (A375): < 300 nM; EC50 (786-O): < 300 nM; EC50 (SW900): 300 to 1000 nM; EC50 (KATO III): 300 to 1000 nM; EC50 (A-704): 300 to 1000 nM
